Measured values as given in patent US10946033B2, “2′-substituted-N6-substituted purine nucleotides for RNA virus treatment” (priority 2016, dated 2021).
Read-outs that look alike come from different tables or passages of the source.

How the values were obtained:
Yellow Fever (YFV) = assay: microbe, parasite or virus in culture; assay type: cell-based, Yellow Fever virus; details: read-out: YFV EC50
[1] = tested on: Dengue virus type 2 (DENV-2); assay: microbe, parasite or virus in culture; assay type: cell-based; details: read-out: DENV-2 EC50
[2] = Yellow fever virus, BHK-21, 144 h

Compound	EC50 (Yellow Fever (YFV); [2]) [µM]	EC50 ([1]; Dengue virus, DENV2, 144 h) [µM]	EC50 (Yellow Fever (YFV)) [µM]	EC50 [1] [µM]
C#C[C@@]1(F)[C@H](O)[C@@H](COP(=O)(N[C@@H](C)C(=O)OC(C)C)Oc2ccccc2)O[C@H]1n1cnc2c(N(C)C)nc(N)nc21 (mixture of isomers) [Compound 2, (2S)-Isopropyl 2-(((((2R,3R,4R,5R)-5-(2-amino-6-(dimethylamino)-9H-purin-9-yl)-4-ethynyl-4-fluoro-3-hydroxytetrahydrofuran-2-yl)methoxy)(phenoxy)phosphoryl)amino) propanoate]	12.6	72.5	–	–
C#C[C@@]1(F)[C@H](O)[C@@H](COP(=O)(N[C@@H](C)C(=O)OC(C)C)Oc2ccccc2)O[C@H]1n1cnc2c(NC)nc(N)nc21 (stereo partly drawn) [Compound 4, (2S)-Isopropyl 2-(((((2R,3R,4R,5R)-5-(2-amino-6-(methylamino)-9H-purin-9-yl)-4-ethynyl-4-fluoro-3-hydroxytetrahydrofuran-2-yl)methoxy)phenoxy)phosphoryl)-amino) Propanoate]	–	–	7	612
C#C[C@@]1(F)[C@H](O)[C@@H](COP(=O)(N[C@@H](C)C(=O)OC(C)C)Oc2ccccc2)O[C@H]1n1cnc2c(NC3CC3)nc(N)nc21 (stereo partly drawn) [Compound 6, (2S)-Isopropyl 2-(((((2R,3R,4R,5R)-5-(2-amino-6-(cyclopropylamino)-9H-purin-9-yl)-4-ethynyl-4-fluoro-3-hydroxytetrahydrofuran-2-yl)methoxy)phenoxy)phosphoryl)amino) propanoate]	–	–	–	42
CC(C)OC(=O)[C@H](C)N[P@](=O)(OC[C@H]1C(C)[C@@H](n2cnc3c(N)ncnc32)[C@H](O)[C@@H]1O)Oc1ccccc1 (stereo partly drawn) [Compound 204, (2S)-Isopropyl 2-(((S)-(((1R,3R,4S,5R)-3-(6-amino-9H-purin-9-yl)-4,5-dihydroxy-2-methylcyclopentyl)methoxy)(phenoxy)phosphoryl)amino)propanoate]	> 2.1	> 2.1	–	–
CNc1nc(N)nc2c1ncn2[C@@H]1O[C@H](CO[P@@](=O)(N[C@@H](C)C(=O)OC(C)C)Oc2ccccc2)[C@@H](O)[C@@]1(C)F [Compound 205, isopropyl ((((R,S)-(2R,3R,4R,5R)-5-(2-amino-6-(methylamino)-9H-purin-9-yl)-4-fluoro-3-hydroxy-4-methyltetrahydrofuran-2-yl)methoxy)-phenoxy-phosphoryl)-L-alaninate]	1.2	0.8	–	–
CC1[C@@H](n2cnc3c(N)ncnc32)[C@H](O)[C@H](O)[C@H]1CO (some centres unmarked) [Compound 206]	2.3	1.83	–	–
